Key:
[1] = molecular target: HLA A*6802 (Homo sapiens, UniProt P04439, A269V/D140Y/D185E/E176V/E277Q/E87N/F33Y/G231S/I121R/I166T/I218V/L180W/L300P/L318F/N151K/P208A/P217A/Q86R/R138H/R169H/S129P/T345S/V36M); type: binding
[2] = molecular target: H-2 D^d (Mus musculus, UniProt P01900); type: binding
[3] = molecular target: HLA B*1503 (Homo sapiens, UniProt P01889, A329T/A93T/A95T/C349S/D201E/D98Y/E187L/E204Q/K202T/N87E/Q94N/R155S/R180L/S121R/S35A/V306I/V36M/Y140S/Y91S); assay: biochemical; type: binding
[4] = molecular target: HLA B*5301 (Homo sapiens, UniProt P01889, A329T/A93T/A95T/C349S/D201E/D98Y/E176V/E187L/E204Q/E69T/G107R/I218V/K202T/L105A/L119I/N104I/Q94N/R106L/R155S/R180L/S101N/S121R/S35A/S48A/T118I/V127L/V306I/V36M/Y140S/Y91F); type: binding
[5] = molecular target: HLA B*5802 (Homo sapiens, UniProt P01889, A329T/C349S/D201E/D98Y/E176V/E187L/E204Q/E69T/G107R/I218V/I90N/K202T/L105A/N104I/N87E/Q89R/Q94S/R106L/R155S/R180L/R86G/S101N/S121W/S35A/S48A/V127L/V306I/V36M/Y140S/Y91M); type: binding
[6] = molecular target: HLA B*2705 (Homo sapiens, UniProt P01889, D138H/D201E/E176V/E204Q/G107R/H137Y/K202T/N104T/N87E/Q56L/Q94K/R106L/R155S/R180L/S101D/S121N/S48T/Y140D/Y33H/Y91C); type: binding; conditions: positional scanning combinatorial 9-mer library; normalized to 1.0 for the best residue at each position
[7] = molecular target: HLA A*0201 (Homo sapiens, UniProt P04439, D140Y/D185E/D98H/E176V/E277Q/G131W/G231S/I119V/I121R/I166T/I218V/L300P/L318F/N151K/N90K/P208A/P217A/Q86G/Q94H/R138H/R169H/T345S); conditions: positional scanning combinatorial 9-mer library; normalized to 1.0 for the best residue at each position
[8] = molecular target: H-2 D^b (Mus musculus, UniProt P01899); type: binding
Sequence of H-2 D^b (P01887 21-119): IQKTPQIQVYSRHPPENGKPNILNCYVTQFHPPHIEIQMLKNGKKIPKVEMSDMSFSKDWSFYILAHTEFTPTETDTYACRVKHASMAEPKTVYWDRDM
Sequence of H-2 D^b (P01899 25-362): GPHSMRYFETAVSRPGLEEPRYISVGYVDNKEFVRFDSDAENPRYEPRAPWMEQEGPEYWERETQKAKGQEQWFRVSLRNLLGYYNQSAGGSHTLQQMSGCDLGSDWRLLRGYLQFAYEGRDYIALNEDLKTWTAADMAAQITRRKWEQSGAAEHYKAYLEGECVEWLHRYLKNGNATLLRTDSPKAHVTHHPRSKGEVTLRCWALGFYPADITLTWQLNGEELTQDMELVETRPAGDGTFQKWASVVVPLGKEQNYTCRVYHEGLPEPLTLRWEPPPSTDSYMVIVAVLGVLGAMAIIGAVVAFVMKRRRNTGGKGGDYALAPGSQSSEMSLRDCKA

[9] = molecular target: HLA B*5401 (Homo sapiens, UniProt P01889, A329T/C349S/D138N/D201E/E176V/E187T/E204Q/E69G/I76V/K202T/L119W/R155S/R180L/S121T/S35A/S48A/V127L/V306I/V36M/Y140L); type: binding
[10] = molecular target: HLA B*5101 (Homo sapiens, UniProt P01889, A329T/A93T/A95T/C349S/D138N/D201E/D98Y/E187L/E204Q/E69T/G107R/I218V/K202T/L105A/L119W/N104I/Q94N/R106L/R155S/R180L/S101N/S121T/S35A/S48A/V306I/V36M/Y195H/Y91F); type: binding
[11] = molecular target: HLA B*3501 (Homo sapiens, UniProt P01889, A329T/A93T/A95T/C349S/D201E/D98Y/E176V/E187L/E204Q/E69T/I218V/K202T/L119I/Q94N/R155S/R180L/S121R/S35A/S48A/T118I/V127L/V306I/V36M/Y140S/Y91F); type: binding
[12] = molecular target: HLA B*0801 (Homo sapiens, UniProt P01889, A93T/A95T/D138N/E176V/E187T/K202T/Q94N/R180D/S35A/V36M/Y33D/Y91F); assay: biochemical; type: binding
[13] = molecular target: HLA A*3001 (Homo sapiens, UniProt P04439, D140H/D185E/E176W/F33S/G80R/H175R/K168Q/R138E/R41S); assay: biochemical; type: binding
[14] = molecular target: HLA B*1501 (Homo sapiens, UniProt P01889, A329T/A93T/A95T/C349S/D201E/D98Y/E187L/E204Q/E69M/E70A/K202T/N87E/Q94N/R155S/R180W/S121R/S35A/S48A/V306I/V36M/Y140S/Y91S); assay: biochemical; type: binding
[15] = molecular target: HLA B*5801 (Homo sapiens, UniProt P01889, A329T/C349S/D201E/D98Y/E176V/E187L/E204Q/E69T/G107R/I218V/I90N/K202T/L105A/L119I/N104I/N87E/Q89R/Q94S/R106L/R155S/R180L/R86G/S101N/S121R/S35A/S48A/T118I/V127L/V306I/V36M/Y140S/Y91M); type: binding
[16] = molecular target: HLA A*3201 (Homo sapiens, UniProt P04439, A270S/D101S/D185E/E176V/E277Q/F133L/G103R/G107R/G231S/H175R/I121M/I218V/I322F/K168Q/L105A/L300P/L318F/M331R/P208A/P217A/Q94H/R106L/R138Q/S129P/T104I/T323A/T345S/V100E/V321M/V358M); assay: biochemical; type: binding
[17] = molecular target: H-2 K^k (Mus musculus, UniProt P04223); type: binding
Sequence of H-2 K^k (P01887 21-119): as the sequence (P01887 21-119) above
Sequence of H-2 K^k (P04223 22-369): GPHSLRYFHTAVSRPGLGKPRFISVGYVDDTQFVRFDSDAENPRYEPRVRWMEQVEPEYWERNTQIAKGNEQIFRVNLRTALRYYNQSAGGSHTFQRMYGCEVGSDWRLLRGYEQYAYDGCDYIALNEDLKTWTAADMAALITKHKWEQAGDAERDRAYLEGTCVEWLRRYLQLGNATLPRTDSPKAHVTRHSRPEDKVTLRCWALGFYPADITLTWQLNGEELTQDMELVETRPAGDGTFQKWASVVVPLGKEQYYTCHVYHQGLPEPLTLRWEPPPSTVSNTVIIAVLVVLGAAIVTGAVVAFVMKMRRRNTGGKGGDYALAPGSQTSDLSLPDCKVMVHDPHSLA

[18] = molecular target: HLA B*0702 (Homo sapiens, UniProt P01889); type: binding; conditions: positional scanning combinatorial 9-mer library; normalized to 1.0 for the best residue at each position

Sequence of H-2 D^d (P01900 whole entry, looked up): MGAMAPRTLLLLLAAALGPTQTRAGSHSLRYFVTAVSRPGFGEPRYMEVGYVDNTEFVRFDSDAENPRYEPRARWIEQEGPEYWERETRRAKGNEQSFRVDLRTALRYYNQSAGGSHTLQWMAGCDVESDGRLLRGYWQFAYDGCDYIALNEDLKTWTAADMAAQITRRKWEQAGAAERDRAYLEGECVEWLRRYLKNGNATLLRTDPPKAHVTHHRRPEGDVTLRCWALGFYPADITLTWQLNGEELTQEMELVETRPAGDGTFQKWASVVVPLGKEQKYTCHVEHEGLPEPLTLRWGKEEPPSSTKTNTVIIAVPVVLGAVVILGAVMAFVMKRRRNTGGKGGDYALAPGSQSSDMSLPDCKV

Sequence | Normalized average relative binding affinity (ARB), HLA A*6802 [1] | Normalized average relative binding affinity (ARB), H-2 Dd [2] | Normalized average relative binding affinity (ARB), HLA B*1503 [3] | Normalized average relative binding affinity (ARB), HLA B*5301 [4] | Normalized average relative binding affinity (ARB), HLA B*5802 [5] | Normalized average relative binding affinity (ARB), HLA B*2705 [6] | Normalized average relative binding affinity (ARB), HLA A*0201 [7] | Normalized average relative binding affinity (ARB), H-2 Db [8] | Normalized average relative binding affinity (ARB), HLA B*5401 [9] | Normalized average relative binding affinity (ARB), HLA B*5101 [10] | Normalized average relative binding affinity (ARB), HLA B*3501 [11] | Normalized average relative binding affinity (ARB), HLA B*0801 [12] | Normalized average relative binding affinity (ARB), HLA A*3001 [13] | Normalized average relative binding affinity (ARB), HLA B*1501 [14] | Normalized average relative binding affinity (ARB), HLA B*5801 [15] | Normalized average relative binding affinity (ARB), HLA A*3201 [16] | Normalized average relative binding affinity (ARB), H-2 Kk [17] | Normalized average relative binding affinity (ARB), HLA B*0702 [18]
TXXXXXXXX [3064.0017] | 0.29 | 0.25 | 0.14 | 0.027 | 0.062 | 0.12 | 0.094 | 0.096 | 0.026 | 0.089 | 0.14 | 0.076 | 0.050 | 0.13 | 0.12 | 0.11 | 0.65 | 0.12
VXXXXXXXX [3064.0018] | 0.038 | 0.80 | 0.22 | 0.018 | 0.21 | 0.16 | 0.062 | 0.094 | 0.032 | 0.17 | 0.11 | 0.047 | 0.074 | 0.14 | 0.74 | 0.28 | 0.13 | 0.14
WXXXXXXXX [3064.0019] | 0.19 | 1.0 | 0.27 | 0.17 | 0.11 | 0.41 | 0.057 | 0.16 | 0.14 | 0.11 | 0.23 | 0.20 | 0.020 | 0.44 | 0.29 | 0.059 | 0.80 | 0.25

Reference: publication PMC2248166, “Quantitative peptide binding motifs for 19 human and mouse MHC class I molecules derived using positional scanning combinatorial peptide libraries” (Immunome Research, 2008)
